According to patent US20240016938A1, “METHODS FOR INCREASING THE BIOAVAILABILITY OF NUCLEOSIDE MEDICINAL AGENTS” (ZOGENIX MDS, INC., priority 2022, published 2024):
Read-outs that look alike come from different tables or passages of the source.

Assay: Phase 1 open-label, fixed-sequence, single-ascending dose and food-effect PK study of MT1621 in adult healthy subjects
Assay type: in vivo, human
Settings: for half-life: read-out: t½ (converted)
Method: A phase 1 study was conducted as an open-label, fixed-sequence, single-ascending dose study in adult healthy subjects designed to evaluate the safety, tolerability, PK, and food-effect of MT1621 (dC and dT). To evaluate the PK of MT1621, the combination was administered at three different doses. Treatment A was a 43.3 mg/kg dose of MT1621 (i.e., a 43.3 mg/kg dose of dC and a 43.3 mg/kg dose of dT (each approximately equivalent to 1 dose of a 130 mg/kg daily dose, divided 3 times daily [TID])) in healthy male and female subjects under fasting conditions; Treatment B was an 86.7 mg/kg dose of MT1621 (i.e., a 86.7 mg/kg dose of dC and a 86.7 mg/kg dose of dT (each approximately equivalent to 1 dose of a 260 mg/kg daily dose, divided TID)) in healthy male and female subjects under fasting conditions; and Treatment C was a 133.3 mg/kg dose of MT1621 (i.e., a 133.3 mg/kg dose of dC and a 133.3 mg/kg dose of dT (each approximately equivalent to a 400 mg/kg daily dose, divided TID)) in healthy male and female subjects under fasting conditions. Additionally, Treatment D was a 133.3 mg/kg dose of MT1621 (i.e., a 133.3 mg/kg dose of dC and a 133.3 mg/kg dose of dT (each approximately equivalent to a 400 mg/kg daily dose, divided TID) in healthy male and female subjects under fed conditions, to determine the effect of a high-fat meal on the single-dose PK of MT1621.
Methodology of open-label, Phase 1, fixed-sequence, single-dose, dose escalation, and food-effect study. Fourteen (14) healthy, adult, male and female subjects were enrolled with an approximately equal distribution (at least 40% of each sex) between male and female subjects.
On Day 1 of each period, subjects received 1 of 3 dose levels of MT1621 under fasting conditions as escalating single doses over 3 periods in Part A (Treatments A, B, and C in Periods 1, 2, and 3, respectively) and with the highest dose under fed conditions in Part B (Treatment D in Period 4). Four (4) of 14 subjects that completed Part A (Periods 1 to 3) could not complete Part B (Treatment D in Period 4) during the original confinement. These subjects were then to return to the clinical unit and continue the study to complete Part B (Treatment D in Period 4); 2 of the 4 subjects completed Part B.
Each treatment was assessed by blood and urine PK sampling pre-dose and up to 48 hours post-dose for the determination of dC and dT in plasma and urine PK, and possible future analysis of blood for PD biomarkers.
A washout period of at least 2 days without drug between each treatment administration was maintained. Fourteen subjects were enrolled in the study, and 12 subjects completed the study. Data from 14 subjects were included in the PK analysis of Periods 1, 2, and 3 and data from 12 subjects were included in the PK analysis of Period 4.
Study drug administered in Example 1 was 0.5 g dC and 0.5 g dT powders for solution and were reconstituted in juice or water.
After reconstitution in a fixed amount of water or juice, the solution was administered via measured volume to provide the amounts specified in Studies A, B, C, and D.
MT1621 was administered orally at Hour 0 on Day 1, following an overnight fast for Treatments A, B, and C and within 5 minutes of consumption of a standardized high-fat breakfast (which included eggs, bacon, and toast with butter) for Treatment D.
Blood samples for the determination of plasma dC and dT concentrations were collected on Day 1 of each period at pre-dose (0 hour), and at 0.25, 0.5, 1, 1.5, 2, 3, 4, 5, 6, 8, 12, 24, and 48 after study drug administration. In Period 4, blood was collected for the 48-hour PK sample; for Periods 1 through 3, the 48-hour PK sample was collected at the same time as the pre-dose PK sample from the next period so only 1 sample was collected for both PK time points. It should be pointed out that Periods 1-3 used sampling up to 24 hours for PK while Period 4 used the complete 48-hour profile. […]

[1] = 100*(test/reference): 133.3 mg/kg MT1621 fed vs fasted, baseline-adjusted plasma
[2] = Treatment A: single 43.3 mg/kg MT1621, fasted, baseline-adjusted plasma, arithmetic mean ± SD
[3] = Treatment B: single 86.7 mg/kg MT1621, fasted, baseline-adjusted plasma, arithmetic mean ± SD
[4] = Treatment C: single 133.3 mg/kg MT1621, fasted, baseline-adjusted plasma, arithmetic mean ± SD
[5] = Treatment D: single 133.3 mg/kg MT1621, fed (high-fat breakfast), baseline-adjusted plasma, arithmetic mean ± SD
[6] = across the 3 fasted dose levels (Treatments A, B, C), plasma

## Cc1cn([C@H]2C[C@H](O)[C@@H](CO)O2)c(=O)[nH]c1=O [dT, β-D-2′-deoxythymidine]
133.3 mg/kg MT1621, plasma
  increase in baseline adjusted AUC, fed compared to fasted: 74%
  increase in baseline adjusted Cmax, fed compared to fasted: 27%
[1]
  AUC0-t GMR (%): 174.38%
  Cmax GMR (%): 127.39%
[2]
  AUC%extrap: 46.24 NC %
  Kel: 0.1569 NC 1/hr
[3]
  AUC%extrap: 6.481 ± 5.9830%
  Kel: 0.0932 ± 0.07205 h⁻¹
[4]
  AUC%extrap: 1.954 ± 1.6169%
  Kel: 0.09785 ± 0.06094 h⁻¹
[5]
  AUC%extrap: 1.244 ± 1.1349%
  Kel: 0.2445 ± 0.2863 h⁻¹
[6]
  dose proportionality of AUC (total extent of exposure, AUC0-t and AUC0-inf): neither AUC nor Cmax was dose proportional
  dose proportionality of Cmax: neither AUC nor Cmax was dose proportional
Both sexes, human, oral, Treatment D: single 133.3 mg/kg MT1621, fed (high-fat breakfast), baseline-adjusted plasma, arithmetic mean ± SD, read-out: Vz/F
  Vd/F: 6220 ± 2880 L/kg
Both sexes, human, plasma, oral, 43.3 mg/kg, Treatment A: single 43.3 mg/kg MT1621, fasted, baseline-adjusted plasma, arithmetic mean ± SD
  half-life: 265 min
Both sexes, human, plasma, oral, 43.3 mg/kg, Treatment A: single 43.3 mg/kg MT1621, fasted, baseline-adjusted plasma, geometric mean (geometric CV %)
  AUC(0-inf): 3.56 ng·h/mL
Both sexes, human, plasma, oral, 43.3 mg/kg, Treatment A: single 43.3 mg/kg MT1621, fasted, baseline-adjusted plasma, geometric mean (geometric CV %), read-out: AUC0-4
  AUC(0-t): 8.78 ng·h/mL
Both sexes, human, plasma, oral, 43.3 mg/kg, Treatment A: single 43.3 mg/kg MT1621, fasted, baseline-adjusted plasma, geometric mean (geometric CV %), read-out: AUC0-6
  AUC(0-t): 11.1 ng·h/mL
Both sexes, human, plasma, oral, 43.3 mg/kg, Treatment A: single 43.3 mg/kg MT1621, fasted, baseline-adjusted plasma, geometric mean (geometric CV %), read-out: AUC0-48
  AUC(0-t): 18.2 ng·h/mL
Both sexes, human, plasma, oral, 43.3 mg/kg, Treatment A: single 43.3 mg/kg MT1621, fasted, baseline-adjusted plasma, geometric mean (geometric CV %), read-out: AUC0-t
  AUC(0-t): 12.6 ng·h/mL
Both sexes, human, plasma, oral, 43.3 mg/kg, Treatment A: single 43.3 mg/kg MT1621, fasted, baseline-adjusted plasma, geometric mean (geometric CV %), read-out: Cmax
  Cmax: 6.19 ng/mL
Both sexes, human, plasma, oral, 43.3 mg/kg, Treatment A: single 43.3 mg/kg MT1621, fasted, baseline-adjusted plasma, median (minimum, maximum), read-out: Tmax
  Tmax: 0.516 h
Both sexes, human, plasma, oral, 86.7 mg/kg, Treatment B: single 86.7 mg/kg MT1621, fasted, baseline-adjusted plasma, arithmetic mean ± SD
  half-life: 625 ± 357 min
Both sexes, human, plasma, oral, 86.7 mg/kg, Treatment B: single 86.7 mg/kg MT1621, fasted, baseline-adjusted plasma, geometric mean (geometric CV %)
  AUC(0-inf): 67.2 ng·h/mL
Both sexes, human, plasma, oral, 86.7 mg/kg, Treatment B: single 86.7 mg/kg MT1621, fasted, baseline-adjusted plasma, geometric mean (geometric CV %), read-out: AUC0-4
  AUC(0-t): 21 ng·h/mL
Both sexes, human, plasma, oral, 86.7 mg/kg, Treatment B: single 86.7 mg/kg MT1621, fasted, baseline-adjusted plasma, geometric mean (geometric CV %), read-out: AUC0-6
  AUC(0-t): 23.1 ng·h/mL
Both sexes, human, plasma, oral, 86.7 mg/kg, Treatment B: single 86.7 mg/kg MT1621, fasted, baseline-adjusted plasma, geometric mean (geometric CV %), read-out: AUC0-48
  AUC(0-t): 82.1 ng·h/mL
Both sexes, human, plasma, oral, 86.7 mg/kg, Treatment B: single 86.7 mg/kg MT1621, fasted, baseline-adjusted plasma, geometric mean (geometric CV %), read-out: AUC0-t
  AUC(0-t): 31.7 ng·h/mL
Both sexes, human, plasma, oral, 86.7 mg/kg, Treatment B: single 86.7 mg/kg MT1621, fasted, baseline-adjusted plasma, geometric mean (geometric CV %), read-out: Cmax
  Cmax: 14.2 ng/mL
Both sexes, human, plasma, oral, 86.7 mg/kg, Treatment B: single 86.7 mg/kg MT1621, fasted, baseline-adjusted plasma, median (minimum, maximum), read-out: Tmax
  Tmax: 1.06 h
Both sexes, human, plasma, oral, 133.3 mg/kg, Treatment C, fasted, baseline-adjusted plasma, ANOVA on ln-transformed data, read-out: AUC0-t Geometric LSM, 133.3 mg/kg MT1621, Fasted (Reference)
  AUC(0-t): 91.2 ng·h/mL
Both sexes, human, plasma, oral, 133.3 mg/kg, Treatment C, fasted, baseline-adjusted plasma, ANOVA on ln-transformed data, read-out: Cmax Geometric LSM, 133.3 mg/kg MT1621, Fasted (Reference)
  Cmax: 31.5 ng/mL
Both sexes, human, plasma, oral, 133.3 mg/kg, Treatment C: single 133.3 mg/kg MT1621, fasted, baseline-adjusted plasma, arithmetic mean ± SD
  half-life: 525 ± 242 min
Both sexes, human, plasma, oral, 133.3 mg/kg, Treatment C: single 133.3 mg/kg MT1621, fasted, baseline-adjusted plasma, geometric mean (geometric CV %)
  AUC(0-inf): 144 ng·h/mL
Both sexes, human, plasma, oral, 133.3 mg/kg, Treatment C: single 133.3 mg/kg MT1621, fasted, baseline-adjusted plasma, geometric mean (geometric CV %), read-out: AUC0-4
  AUC(0-t): 53.1 ng·h/mL
Both sexes, human, plasma, oral, 133.3 mg/kg, Treatment C: single 133.3 mg/kg MT1621, fasted, baseline-adjusted plasma, geometric mean (geometric CV %), read-out: AUC0-6
  AUC(0-t): 60.6 ng·h/mL
Both sexes, human, plasma, oral, 133.3 mg/kg, Treatment C: single 133.3 mg/kg MT1621, fasted, baseline-adjusted plasma, geometric mean (geometric CV %), read-out: AUC0-48
  AUC(0-t): 114 ng·h/mL
Both sexes, human, plasma, oral, 133.3 mg/kg, Treatment C: single 133.3 mg/kg MT1621, fasted, baseline-adjusted plasma, geometric mean (geometric CV %), read-out: AUC0-t
  AUC(0-t): 91.2 ng·h/mL
Both sexes, human, plasma, oral, 133.3 mg/kg, Treatment C: single 133.3 mg/kg MT1621, fasted, baseline-adjusted plasma, geometric mean (geometric CV %), read-out: Cmax
  Cmax: 31.5 ng/mL
Both sexes, human, plasma, oral, 133.3 mg/kg, Treatment C: single 133.3 mg/kg MT1621, fasted, baseline-adjusted plasma, median (minimum, maximum), read-out: Tmax
  Tmax: 1.25 h
Both sexes, human, plasma, oral, 133.3 mg/kg, Treatment D, fed, baseline-adjusted plasma, ANOVA on ln-transformed data, read-out: AUC0-t Geometric LSM, 133.3 mg/kg MT1621, Fed (Test)
  AUC(0-t): 159 ng·h/mL
Both sexes, human, plasma, oral, 133.3 mg/kg, Treatment D, fed, baseline-adjusted plasma, ANOVA on ln-transformed data, read-out: Cmax Geometric LSM, 133.3 mg/kg MT1621, Fed (Test)
  Cmax: 40.1 ng/mL
Both sexes, human, plasma, oral, 133.3 mg/kg, Treatment D: single 133.3 mg/kg MT1621, fed (high-fat breakfast), baseline-adjusted plasma, arithmetic mean ± SD
  half-life: 321 ± 187 min
Both sexes, human, plasma, oral, 133.3 mg/kg, Treatment D: single 133.3 mg/kg MT1621, fed (high-fat breakfast), baseline-adjusted plasma, geometric mean (geometric CV %)
  AUC(0-inf): 149 ng·h/mL
Both sexes, human, plasma, oral, 133.3 mg/kg, Treatment D: single 133.3 mg/kg MT1621, fed (high-fat breakfast), baseline-adjusted plasma, geometric mean (geometric CV %), read-out: AUC0-4
  AUC(0-t): 74.4 ng·h/mL
Both sexes, human, plasma, oral, 133.3 mg/kg, Treatment D: single 133.3 mg/kg MT1621, fed (high-fat breakfast), baseline-adjusted plasma, geometric mean (geometric CV %), read-out: AUC0-6
  AUC(0-t): 119 ng·h/mL
Both sexes, human, plasma, oral, 133.3 mg/kg, Treatment D: single 133.3 mg/kg MT1621, fed (high-fat breakfast), baseline-adjusted plasma, geometric mean (geometric CV %), read-out: AUC0-48
  AUC(0-t): 141 ng·h/mL
Both sexes, human, plasma, oral, 133.3 mg/kg, Treatment D: single 133.3 mg/kg MT1621, fed (high-fat breakfast), baseline-adjusted plasma, geometric mean (geometric CV %), read-out: AUC0-t
  AUC(0-t): 159 ng·h/mL
Both sexes, human, plasma, oral, 133.3 mg/kg, Treatment D: single 133.3 mg/kg MT1621, fed (high-fat breakfast), baseline-adjusted plasma, geometric mean (geometric CV %), read-out: Cmax
  Cmax: 40.1 ng/mL
Both sexes, human, plasma, oral, 133.3 mg/kg, Treatment D: single 133.3 mg/kg MT1621, fed (high-fat breakfast), baseline-adjusted plasma, median (minimum, maximum), read-out: Tmax
  Tmax: 4 h
Both sexes, human, plasma, oral, under fasted conditions, read-out: median Tmax
  Tmax: 1 h
Both sexes, human, plasma, oral, under fed conditions, read-out: median Tmax
  Tmax: 3 h
Following MT1621, all 3 dose levels
  plasma exposure compared to endogenous (baseline) concentrations: consistently higher
